Results published in patent US9738634B2, “Heterocyclic amide compound and herbicide” (SYNGENTA PARTICIPATIONS AG, priority 2013, dated 2017).

Columns and labels:
Assay type in all cases: in vivo
[1] = system: barnyard grass; assay: Test Example 1: weedkilling efficacy, preemergent weed treatment in the submerged state; A: barnyard grass; conditions: treatment dosage 320 g/ha
Procedure, shortened: (§1)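 Pots of alluvial soil were flooded to a 4 cm depth. Mixed weed seeds were sown and 2.5 leaf-stage rice seedlings transplanted. On sowing day, water-diluted emulsion was applied to the water surface (dose in g/ha). After 3 weeks at 25–30 °C, effects were rated.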

[2] = system: bulrush; assay: Test Example 1: weedkilling efficacy, preemergent weed treatment in the submerged state; B: bulrush; conditions: treatment dosage 320 g/ha
Procedure, shortened: as §1

[3] = system: oval-leafed pondweed; assay: Test Example 1: weedkilling efficacy, preemergent weed treatment in the submerged state; C: oval-leafed pondweed; conditions: treatment dosage 320 g/ha
Procedure, shortened: as §1

[4] = system: transplanted rice; assay: Test Example 1: preemergent weed treatment in the submerged state, effect on crop; a: transplanted rice; conditions: treatment dosage 320 g/ha
Procedure, shortened: as §1

[5] = system: barnyard grass; assay: Test Example 2: weedkilling efficacy, growth period weed treatment in the submerged state; A: barnyard grass; conditions: treatment dosage 320 g/ha
Procedure, shortened: (§2)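 Weeds treated at the 1-2 leaf stage by application of diluted emulsion onto floodwater (4 cm depth, alluvial soil) at specified g/ha. Grown in greenhouse at 25 to 30° C; herbicidal effect rated three weeks after treatment.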

[6] = system: bulrush; assay: Test Example 2: weedkilling efficacy, growth period weed treatment in the submerged state; B: bulrush; conditions: treatment dosage 320 g/ha
Procedure, shortened: as §2

[7] = system: oval-leafed pondweed; assay: Test Example 2: weedkilling efficacy, growth period weed treatment in the submerged state; C: oval-leafed pondweed; conditions: treatment dosage 320 g/ha
Procedure, shortened: as §2

[8] = system: crabgrass; assay: Test Example 3: weedkilling efficacy through soil treatment; D: crabgrass; conditions: soil treatment
Procedure, shortened: (§3)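 Crop and weed responses were judged three weeks after a uniform surface spray of the water-diluted emulsion at the given g/ha rate. Seeds sat beneath about 1.5 cm of sterilized diluvial soil, and boxes stood in a greenhouse at 25 to 30° C.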

[9] = system: green foxtail; assay: Test Example 3: weedkilling efficacy through soil treatment; E: green foxtail; conditions: soil treatment
Procedure, shortened: as §3

[10] = system: barnyard grass; assay: Test Example 3: weedkilling efficacy through soil treatment; F: barnyard grass; conditions: soil treatment
Procedure, shortened: as §3

[11] = system: wild oat; assay: Test Example 3: weedkilling efficacy through soil treatment; G: wild oat; conditions: soil treatment
Procedure, shortened: as §3

[12] = system: black-grass; assay: Test Example 3: weedkilling efficacy through soil treatment; H: black-grass; conditions: soil treatment
Procedure, shortened: as §3

[13] = system: Italian ryegrass; assay: Test Example 3: weedkilling efficacy through soil treatment; I: Italian ryegrass; conditions: soil treatment
Procedure, shortened: as §3

[14] = system: common wind-grass; assay: Test Example 3: weedkilling efficacy through soil treatment; J: common wind-grass; conditions: soil treatment
Procedure, shortened: as §3

[15] = system: Indian mallow; assay: Test Example 3: weedkilling efficacy through soil treatment; K: Indian mallow; conditions: soil treatment
Procedure, shortened: as §3

[16] = system: redroot pigweed; assay: Test Example 3: weedkilling efficacy through soil treatment; L: redroot pigweed; conditions: soil treatment
Procedure, shortened: as §3

[17] = system: fig-leafed goosefoot; assay: Test Example 3: weedkilling efficacy through soil treatment; M: fig-leafed goosefoot; conditions: soil treatment
Procedure, shortened: as §3

[18] = system: chickweed; assay: Test Example 3: weedkilling efficacy through soil treatment; N: chickweed; conditions: soil treatment
Procedure, shortened: as §3

[19] = system: catchweed; assay: Test Example 3: weedkilling efficacy through soil treatment; O: catchweed; conditions: soil treatment
Procedure, shortened: as §3

[20] = system: birds-eye speedwell; assay: Test Example 3: weedkilling efficacy through soil treatment; p: birds-eye speedwell; conditions: soil treatment
Procedure, shortened: as §3

[21] = system: directly sown rice; assay: Test Example 3: soil treatment, effect on crop; b: directly sown rice; conditions: soil treatment
Procedure, shortened: as §3

[22] = system: corn; assay: Test Example 3: soil treatment, effect on crop; c: corn; conditions: soil treatment
Procedure, shortened: as §3

[23] = system: wheat; assay: Test Example 3: soil treatment, effect on crop; e: wheat; conditions: soil treatment
Procedure, shortened: as §3

[24] = system: beet; assay: Test Example 3: soil treatment, effect on crop; f: beet; conditions: soil treatment
Procedure, shortened: as §3

[25] = system: rapeseed; assay: Test Example 3: soil treatment, effect on crop; g: rapeseed; conditions: soil treatment
Procedure, shortened: as §3

[26] = system: soybean; assay: Test Example 3: soil treatment, effect on crop; d: soybean; conditions: soil treatment
Procedure, shortened: as §3

Structure (SMILES)	A: barnyard grass, weed kill grade [1]	B: bulrush, weed kill grade [2]	C: oval-leafed pondweed, weed kill grade [3]	a: transplanted rice, effect on crop grade [4]	A (barnyard grass) weedkilling efficacy grade [5]	B (bulrush) weedkilling efficacy grade [6]	C (oval-leafed pondweed) weedkilling efficacy grade [7]	E: green foxtail, weedkilling efficacy grade ([9]; treatment dosage 320 g/ha)	F: barnyard grass, weedkilling efficacy grade ([10]; treatment dosage 320 g/ha)	G: wild oat, weedkilling efficacy grade ([11]; treatment dosage 320 g/ha)	H: black-grass, weedkilling efficacy grade ([12]; treatment dosage 320 g/ha)	I: Italian ryegrass, weedkilling efficacy grade ([13]; treatment dosage 320 g/ha)	J: common wind-grass, weedkilling efficacy grade ([14]; treatment dosage 320 g/ha)	K: Indian mallow, weedkilling efficacy grade ([15]; treatment dosage 320 g/ha)	L: redroot pigweed, weedkilling efficacy grade ([16]; treatment dosage 320 g/ha)	M: fig-leafed goosefoot, weedkilling efficacy grade ([17]; treatment dosage 320 g/ha)	N: chickweed, weedkilling efficacy grade ([18]; treatment dosage 320 g/ha)	O: catchweed, weedkilling efficacy grade ([19]; treatment dosage 320 g/ha)	P: birds-eye speedwell, weedkilling efficacy grade ([20]; treatment dosage 320 g/ha)	b: directly sown rice, effect on crop grade ([21]; treatment dosage 320 g/ha)	other results
CC(C)(C(=O)Nc1cc(Br)cc(F)n1)N1COCN(c2ccccc2)C1=O [A-2-19]	5 (weed kill ratio 90% or more, (practically complete withering))	5 (weed kill ratio 90% or more, (practically complete withering))	5 (weed kill ratio 90% or more, (practically complete withering))	3 (weed kill ratio 40% or more, less than 70%)	5 (weed kill ratio 90% or more, (practically complete withering))	5 (weed kill ratio 90% or more, (practically complete withering))	5 (weed kill ratio 90% or more, (practically complete withering))	5 (weed kill ratio 90% or more, (practically complete withering))	5 (weed kill ratio 90% or more, (practically complete withering))	5 (weed kill ratio 90% or more, (practically complete withering))	5 (weed kill ratio 90% or more, (practically complete withering))	5 (weed kill ratio 90% or more, (practically complete withering))	5 (weed kill ratio 90% or more, (practically complete withering))	0 (weed kill ratio 5% or less (practically no effect))	0 (weed kill ratio 5% or less (practically no effect))	4 (weed kill ratio 70% or more, less than 90%)	5 (weed kill ratio 90% or more, (practically complete withering))	4 (weed kill ratio 70% or more, less than 90%)	4 (weed kill ratio 70% or more, less than 90%)	0 (weed kill ratio 5% or less (practically no effect))	D: crabgrass, weedkilling efficacy grade ([8]; treatment dosage 320 g/ha): 5 (weed kill ratio 90% or more, (practically complete withering)); c: corn, effect on crop grade ([22]; treatment dosage 320 g/ha): 2 (weed kill ratio 20% or more, less than 40%); e: wheat, effect on crop grade ([23]; treatment dosage 320 g/ha): 2 (weed kill ratio 20% or more, less than 40%); f: beet, effect on crop grade ([24]; treatment dosage 320 g/ha): 4 (weed kill ratio 70% or more, less than 90%); g: rapeseed, effect on crop grade ([25]; treatment dosage 320 g/ha): 5 (weed kill ratio 90% or more, (practically complete withering))
CC(C)(C(=O)Nc1nncs1)N1COCN(c2ccccc2)C1=O [A-1-12]	5 (weed kill ratio 90% or more, (practically complete withering))	5 (weed kill ratio 90% or more, (practically complete withering))	4 (weed kill ratio 70% or more, less than 90%)	0 (weed kill ratio 5% or less (practically no effect))	1 (weed kill ratio 5% or more, less than 20%)	5 (weed kill ratio 90% or more, (practically complete withering))	3 (weed kill ratio 40% or more, less than 70%)	5 (weed kill ratio 90% or more, (practically complete withering))	3 (weed kill ratio 40% or more, less than 70%)	3 (weed kill ratio 40% or more, less than 70%)	5 (weed kill ratio 90% or more, (practically complete withering))	5 (weed kill ratio 90% or more, (practically complete withering))	5 (weed kill ratio 90% or more, (practically complete withering))	0 (weed kill ratio 5% or less (practically no effect))	0 (weed kill ratio 5% or less (practically no effect))	4 (weed kill ratio 70% or more, less than 90%)	3 (weed kill ratio 40% or more, less than 70%)	0 (weed kill ratio 5% or less (practically no effect))	3 (weed kill ratio 40% or more, less than 70%)	5 (weed kill ratio 90% or more, (practically complete withering))	c: corn, effect on crop grade ([22]; treatment dosage 320 g/ha): 0 (weed kill ratio 5% or less (practically no effect)); d: soybean, effect on crop grade ([26]; treatment dosage 320 g/ha): 4 (weed kill ratio 70% or more, less than 90%); e: wheat, effect on crop grade ([23]; treatment dosage 320 g/ha): 0 (weed kill ratio 5% or less (practically no effect)); f: beet, effect on crop grade ([24]; treatment dosage 320 g/ha): 2 (weed kill ratio 20% or more, less than 40%); g: rapeseed, effect on crop grade ([25]; treatment dosage 320 g/ha): 0 (weed kill ratio 5% or less (practically no effect))
CC(C)(C(=O)Nc1cc(Cl)cc(C2CC2)n1)N1COCN(c2ccccc2)C1=O [A-2-29]																					D: crabgrass, weedkilling efficacy grade ([8]; treatment dosage 230 g/ha): 5 (weed kill ratio 90% or more, (practically complete withering)); E: green foxtail, weedkilling efficacy grade ([9]; treatment dosage 230 g/ha): 5 (weed kill ratio 90% or more, (practically complete withering)); F: barnyard grass, weedkilling efficacy grade ([10]; treatment dosage 230 g/ha): 5 (weed kill ratio 90% or more, (practically complete withering)); G: wild oat, weedkilling efficacy grade ([11]; treatment dosage 230 g/ha): 3 (weed kill ratio 40% or more, less than 70%); H: black-grass, weedkilling efficacy grade ([12]; treatment dosage 230 g/ha): 5 (weed kill ratio 90% or more, (practically complete withering)); I: Italian ryegrass, weedkilling efficacy grade ([13]; treatment dosage 230 g/ha): 5 (weed kill ratio 90% or more, (practically complete withering)); J: common wind-grass, weedkilling efficacy grade ([14]; treatment dosage 230 g/ha): 5 (weed kill ratio 90% or more, (practically complete withering)); K: Indian mallow, weedkilling efficacy grade ([15]; treatment dosage 230 g/ha): 3 (weed kill ratio 40% or more, less than 70%); L: redroot pigweed, weedkilling efficacy grade ([16]; treatment dosage 230 g/ha): 2 (weed kill ratio 20% or more, less than 40%); M: fig-leafed goosefoot, weedkilling efficacy grade ([17]; treatment dosage 230 g/ha): 3 (weed kill ratio 40% or more, less than 70%); N: chickweed, weedkilling efficacy grade ([18]; treatment dosage 230 g/ha): 4 (weed kill ratio 70% or more, less than 90%); O: catchweed, weedkilling efficacy grade ([19]; treatment dosage 230 g/ha): 3 (weed kill ratio 40% or more, less than 70%); P: birds-eye speedwell, weedkilling efficacy grade ([20]; treatment dosage 230 g/ha): 5 (weed kill ratio 90% or more, (practically complete withering)); b: directly sown rice, effect on crop grade ([21]; treatment dosage 230 g/ha): 1 (weed kill ratio 5% or more, less than 20%); c: corn, effect on crop grade ([22]; treatment dosage 230 g/ha): 1 (weed kill ratio 5% or more, less than 20%); d: soybean, effect on crop grade ([26]; treatment dosage 230 g/ha): 0 (weed kill ratio 5% or less (practically no effect)); e: wheat, effect on crop grade ([23]; treatment dosage 230 g/ha): 0 (weed kill ratio 5% or less (practically no effect)); f: beet, effect on crop grade ([24]; treatment dosage 230 g/ha): 3 (weed kill ratio 40% or more, less than 70%); g: rapeseed, effect on crop grade ([25]; treatment dosage 230 g/ha): 4 (weed kill ratio 70% or more, less than 90%)
